Laboratory results: US9676778B2, “Substituted pyrrolo[2,3-b]pyrazines as JAK3 inhibitors” (PRINCIPIA BIOPHARMA INC., priority 2012, dated 2017)

How the values were obtained:
[1] = system: mixed lymphocyte reaction; conditions: Kudlacz 2004; cited from earlier work
[2] = system: delayed-type hypersensitivity response; conditions: Kudlacz 2004; cited from earlier work
[3] = system: collagen-induced arthritis; conditions: Milici 2008; cited from earlier work
psoriasis = conditions: short-term study, Boy 2009; cited from earlier work
JAK3 = target: T1, JAK3 (Homo sapiens, UniProt P52333); assay: Determination of Drug-Kinase Residence Time for JAK3 (TR-FRET tracer competition); format: binding; conditions: 1.5 uM compound, 500 nM JAK3, from 1 hour through 6 hours
T1 construct: purchased Invitrogen PV3855
Description: The read-out for slow dissociation is the ability of the compound of interest to block binding of a high affinity fluorescent tracer molecule to the kinase active site, as detected using time-resolved fluorescence resonance energy transfer (TR-FRET). The experiment was conducted in a buffer consisting of 50 mM Hepes pH 7.5, 10 mM MgCl2, 0.01% Triton X-100, and 1 mM EGTA.
The first step of the procedure was incubation of 500 nM JAK3 (Invitrogen Cat. #PV3855) with 1.5 uM of a compound disclosed in Table 1 for 30 minutes in a volume of 10 uL. The mixture was then diluted 5-fold by mixture of 10 uL JAK3/cmpd with 40 uL buffer. A 10 uL volume of the diluted kinase/compound solution was then added to a well of a small volume 384 well plate (such as Greiner Cat. #784076). In order to probe for reversibility of the kinase-compound binding interaction, a competition solution containing both a high affinity fluorescent tracer and an antibody coupled to Europium was prepared. For JAK3, the competition solution contained 8 uM Tracer 236 (Invitrogen Cat. #PV5592), which is a proprietary high affinity ligand for JAK3 coupled to the fluorophore AlexaFluor 647. The competition solution also contained 80 nM of an Anti-GST antibody coupled to Europium which is designed to bind the GST purification tag in JAK3.
After addition of 10 uL of the competition solution to the Greiner plate, the mixture was incubated for one hour or greater to allow time for dissociation of non-covalent inhibitors and binding of the high affinity tracer. It was expected that covalent and slow dissociating inhibitors will block binding of the tracer while rapidly dissociating non-covalent inhibitors will not. Binding of the tracer to JAK3 was detected using TR-FRET between the Europium moiety of the Anti-GST antibody and the AlexaFluor 647 group of Tracer 236. Binding was evaluated using a Perkin Elmer Envision instrument (Model 2101) equipped with filters and mirrors compatible with LANCE-type TR-FRET experiments. Data were plotted at percentage of signal obtained in the absence of competitor compound. […]

JAK3 protein = target: T2, JAK3 protein (Homo sapiens, UniProt P52333); assay: Reversibility of Binding (trypsin digestion, HPLC-MS/MS)
T2 sequence (P52333 1-1124): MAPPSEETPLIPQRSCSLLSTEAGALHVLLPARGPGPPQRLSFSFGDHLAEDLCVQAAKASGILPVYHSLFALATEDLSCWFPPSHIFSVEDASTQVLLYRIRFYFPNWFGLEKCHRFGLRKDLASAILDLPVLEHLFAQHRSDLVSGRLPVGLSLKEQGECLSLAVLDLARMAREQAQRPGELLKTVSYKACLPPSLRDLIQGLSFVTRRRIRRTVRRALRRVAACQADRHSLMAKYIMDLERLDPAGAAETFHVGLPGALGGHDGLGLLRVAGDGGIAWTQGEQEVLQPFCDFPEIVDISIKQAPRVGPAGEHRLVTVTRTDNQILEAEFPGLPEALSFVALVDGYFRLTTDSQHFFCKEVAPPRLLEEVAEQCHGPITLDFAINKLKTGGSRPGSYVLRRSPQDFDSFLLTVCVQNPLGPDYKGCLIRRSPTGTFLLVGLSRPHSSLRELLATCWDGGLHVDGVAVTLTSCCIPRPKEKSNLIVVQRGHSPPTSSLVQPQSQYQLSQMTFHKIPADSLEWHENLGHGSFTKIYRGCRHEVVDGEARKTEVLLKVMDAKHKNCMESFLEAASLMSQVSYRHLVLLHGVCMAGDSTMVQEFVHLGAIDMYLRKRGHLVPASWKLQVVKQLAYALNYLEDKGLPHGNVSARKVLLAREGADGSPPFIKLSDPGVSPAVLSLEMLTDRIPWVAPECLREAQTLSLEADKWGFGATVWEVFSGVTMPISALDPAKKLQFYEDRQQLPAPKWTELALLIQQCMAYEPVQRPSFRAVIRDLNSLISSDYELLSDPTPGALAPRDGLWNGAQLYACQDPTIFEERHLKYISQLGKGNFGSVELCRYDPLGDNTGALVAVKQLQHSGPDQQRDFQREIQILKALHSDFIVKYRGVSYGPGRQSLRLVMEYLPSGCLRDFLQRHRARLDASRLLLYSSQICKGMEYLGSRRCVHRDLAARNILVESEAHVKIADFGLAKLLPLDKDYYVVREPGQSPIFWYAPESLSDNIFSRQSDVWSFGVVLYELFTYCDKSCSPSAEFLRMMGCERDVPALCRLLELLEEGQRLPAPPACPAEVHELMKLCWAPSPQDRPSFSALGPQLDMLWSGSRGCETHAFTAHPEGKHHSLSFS
Description: The following approach was developed to differentiate compounds that form irreversible bonds with their targets, such as acrylamide compounds, from compound that bind reversibly. Reactions were prepared with the JAK3 protein target at a higher concentration than the compound of interest. The reactions were then digested with trypsin, disrupting proper folding of the target. […] The concentration of compound in solution was assessed both preceding and following perturbation using high performance liquid chromatography (HPLC) coupled to tandem mass spectrometry.

H78 = assay: Tumor Cell Proliferation Assay; format: cell-based; conditions: H78, CTCL (Sézary syndrome); 72 hr
Description: (§1) Cells (SZ-4 CTCL cells) were plated at a density of 5000 cells/well (384 well plates). Cells were plated in DMEM culture media supplemented with 0.5% fetal bovine serum. Other tumor cells (e.g. NK-TCL, T-ALL) were plated at densities of 2000-10,000 cells/well in culture media (e.g. DMEM, RPMI), containing 1%-20% FBS, dependent on the growth requirements of the individual tumor cell line. Compounds were diluted in culture media using serial dilution yielding final concentrations with 0 (DMSO control) or concentrations ranging from 0.5 nM to 10 uM. For the CTCL cells, after 1 hr incubation, at 37° C. in 95% air, 5% CO2, cells were induced with 100 ng/ml IL-2 for 72 hr. For the other cell types, cells were incubated without further induction for 72 hr. Cell Titer-Glo reagent was then added to the cells, contents mixed for 2 min, incubated at room temperature for 10 min, then luminescence was determined using a microplate luminometer. The percent inhibition was calculated based on a DMSO control for no inhibition and plotted as a function of test compound concentration from which an IC50 value was calculated.

H9 = assay: Tumor Cell Proliferation Assay; format: cell-based; conditions: Homo sapiens; H9, CTCL (Sézary syndrome); 72 hr
Description: as §1

HANK1 = assay: Tumor Cell Proliferation Assay; format: cell-based; conditions: HANK1, NK-TCL; 72 hr
Description: as §1

HH = assay: Tumor Cell Proliferation Assay; format: cell-based; conditions: Homo sapiens, CTCL (non MF, non Sézary syndrome), 72 hr
Description: as §1

Hut-102 = assay: Tumor Cell Proliferation Assay; format: cell-based; conditions: Hut-102, CTCL (Mycosis fungoides); 72 hr
Description: as §1

KHG1 = assay: Tumor Cell Proliferation Assay; format: cell-based; conditions: KHG1, NK-TCL; 72 hr
Description: as §1

MJ = assay: Tumor Cell Proliferation Assay; format: cell-based; conditions: CTCL (Unknown), 72 hr
Description: as §1

NKS1 = assay: Tumor Cell Proliferation Assay; format: cell-based; conditions: NKS1, NK-TCL; 72 hr
Description: as §1

SNK1 = assay: Tumor Cell Proliferation Assay; format: cell-based; conditions: SNK1, NK-TCL; 72 hr
Description: as §1

SNK6 = assay: Tumor Cell Proliferation Assay; format: cell-based; conditions: SNK6, NK-TCL; 72 hr
Description: as §1

SZ-4 CTCL cells = assay: Tumor Cell Proliferation Assay; format: cell-based; conditions: SZ-4, CTCL (Sézary syndrome); 100 ng/ml IL-2, 72 hr, Cell Titer-Glo
Description: as §1

C[C@@H]1CCN(C(=O)CC#N)C[C@@H]1N(C)c1ncnc2[nH]ccc12 [CP-690,550]
effect on mixed lymphocyte reaction (MLR) [1]: blocks
effect on delayed-type hypersensitivity response (DTH) [2]: blocks
effect in collagen-induced arthritis model [3]: blocks
efficacy in psoriasis patients (psoriasis): demonstrated efficacy

C=CC(=O)Nc1cccc(-c2cnc3[nH]cc(C(=O)C(C)(C)C)c3n2)c1 [Compound 1, N-(3-(7-pivaloyl-5H-pyrrolo[2,3-b]pyrazin-2-yl)phenyl)acrylamide]
binding of Tracer 236 after pre-incubation with compound (JAK3): no increase
Compound in solution in the native state? (JAK3 protein; JAK3 at higher concentration than compound): no
Compound in solution in the denatured or digested state? (JAK3 protein; after digestion with trypsin): no

C=CC(=O)Nc1cccc(-c2cnc3[nH]cc(C(=O)NC(C)(C)C)c3n2)c1 [Compound 2, 2-(3-acrylamidophenyl)-N-(tert-butyl)-5H-pyrrolo[2,3-b]pyrazine-7-carboxamide]
binding of Tracer 236 after pre-incubation with compound (JAK3): no increase
IC50 (H78): 150 nM
IC50 (H9): 450 nM
IC50 (HANK1): 1870 nM
IC50 (HH): 2700 nM
IC50 (Hut-102): 104 nM
IC50 (KHG1): 498 nM
IC50 (MJ): > 5000 nM
IC50 (NKS1): 109 nM
IC50 (SNK1): 735 nM
IC50 (SNK6): 8420 nM
IC50 (SZ-4 CTCL cells): 56 nM

CN(C)CC=CC(=O)Nc1cccc(-c2cnc3[nH]cc(C(=O)NC(C)(C)C)c3n2)c1 [Compound 3, N-(tert-butyl)-2-(3-(4-(dimethylamino)but-2-enamido)phenyl)-5H-pyrrolo[2,3-b]pyrazine-7-carboxamide]
binding of Tracer 236 after pre-incubation with compound (JAK3): no increase
